Laboratory results published in ChEMBL document CHEMBL1154382, “Preliminary SAR analysis of novel antiproliferative N(6),5'-bis-ureidoadenosine derivatives” (2009).

Experiments:
Type in all cases: functional
Conditions in all cases: values are per cent of control
U-251 = test: Antiproliferative activity against human U251 cells at 10 uM assessed as cell growth inhibition relative to control
MCF7 = test: Antiproliferative activity against human MCF7 cells at 10 uM assessed as cell growth inhibition relative to control
SK-MEL-2 = test: Antiproliferative activity against human SK-MEL-2 cells at 10 uM assessed as cell growth inhibition relative to control
MOLT-4 = test: Antiproliferative activity against human MOLT4 cells at 10 uM assessed as cell growth inhibition relative to control
HCC 2998 = test: Antiproliferative activity against human HCC2998 cells at 10 uM assessed as cell growth inhibition relative to control
LOX IMVI = test: Antiproliferative activity against human LOXIMVI cells at 10 uM assessed as cell growth inhibition relative to control
OVCAR-4 = test: Antiproliferative activity against human OVCAR4 cells at 10 uM assessed as cell growth inhibition relative to control
T47D = test: Antiproliferative activity against human T47D cells at 10 uM assessed as cell growth inhibition relative to control
HOP-62 = test: Antiproliferative activity against human HOP62 cells at 10 uM assessed as cell growth inhibition relative to control
UACC-257 = test: Antiproliferative activity against human UACC257 cells at 10 uM assessed as cell growth inhibition relative to control
CAKI-1 = test: Antiproliferative activity against human Caki1 cells at 10 uM assessed as cell growth inhibition relative to control
MDA-MB-468 = test: Antiproliferative activity against human MDA-MB-468 cells at 10 uM assessed as cell growth inhibition relative to control
DU-145 = test: Antiproliferative activity against human DU145 cells at 10 uM assessed as cell growth inhibition relative to control
ACHN = test: Antiproliferative activity against human ACHN cells at 10 uM assessed as cell growth inhibition relative to control
SNB-19 = test: Antiproliferative activity against human SNB19 cells at 10 uM assessed as cell growth inhibition relative to control
SF-295 = test: Antiproliferative activity against human SF295 cells at 10 uM assessed as cell growth inhibition relative to control
Malme-3M = test: Antiproliferative activity against human MALME-3M cells at 10 uM assessed as cell growth inhibition relative to control
HT-29 = test: Antiproliferative activity against human HT-29 cells at 10 uM assessed as cell growth inhibition relative to control
SN12C = test: Antiproliferative activity against human SN12C cells at 10 uM assessed as cell growth inhibition relative to control
RXF 393 = test: Antiproliferative activity against human RXF393 cells at 10 uM assessed as cell growth inhibition relative to control
OVCAR-3 = test: Antiproliferative activity against human OVCAR-3 cells at 10 uM assessed as cell growth inhibition relative to control
SK-MEL-5 = test: Antiproliferative activity against human SK-MEL-5 cells at 10 uM assessed as cell growth inhibition relative to control
SF-268 = test: Antiproliferative activity against human SF268 cells at 10 uM assessed as cell growth inhibition relative to control
OVCAR-8 = test: Antiproliferative activity against human OVCAR8 cells at 10 uM assessed as cell growth inhibition relative to control
HOP-92 = test: Antiproliferative activity against human HOP92 cells at 10 uM assessed as cell growth inhibition relative to control
SNB-75 = test: Antiproliferative activity against human SNB75 cells at 10 uM assessed as cell growth inhibition relative to control
COLO 205 = test: Antiproliferative activity against human COLO205 cells at 10 uM assessed as cell growth inhibition relative to control
HL-60(TB) = test: Antiproliferative activity against human HL-60(TB) cells at 10 uM assessed as cell growth inhibition relative to control
SK-MEL-28 = test: Antiproliferative activity against human SK-MEL-28 cells at 10 uM assessed as cell growth inhibition relative to control
HCT-116 = test: Antiproliferative activity against human HCT116 cells at 10 uM assessed as cell growth inhibition relative to control
[1] = Antiproliferative activity against human […] cells at 10 uM assessed as cell growth inhibition relative to control
SF-539 = test: Antiproliferative activity against human SF539 cells at 10 uM assessed as cell growth inhibition relative to control
UO-31 = test: Antiproliferative activity against human UO31 cells at 10 uM assessed as cell growth inhibition relative to control
KM12 = test: Antiproliferative activity against human KM12 cells at 10 uM assessed as cell growth inhibition relative to control
786-0 = test: Antiproliferative activity against human 786-0 cells at 10 uM assessed as cell growth inhibition relative to control
MDA-MB-231 = test: Antiproliferative activity against human MDA-MB-231 cells at 10 uM assessed as cell growth inhibition relative to control
OVCAR-5 = test: Antiproliferative activity against human OVCAR5 cells at 10 uM assessed as cell growth inhibition relative to control
UACC-62 = test: Antiproliferative activity against human UACC62 cells at 10 uM assessed as cell growth inhibition relative to control
M14 = test: Antiproliferative activity against human M14 cells at 10 uM assessed as cell growth inhibition relative to control
SK-OV-3 = test: Antiproliferative activity against human SKOV3 cells at 10 uM assessed as cell growth inhibition relative to control
NCI-H460 = test: Antiproliferative activity against human NCI-H460 cells at 10 uM assessed as cell growth inhibition relative to control
EKVX = test: Antiproliferative activity against human EKVX cells at 10 uM assessed as cell growth inhibition relative to control
HCT-15 = test: Antiproliferative activity against human HCT15 cells at 10 uM assessed as cell growth inhibition relative to control
NCI-H226 = test: Antiproliferative activity against human NCI-H226 cells at 10 uM assessed as cell growth inhibition relative to control
CCRF-CEM = test: Antiproliferative activity against human CCRF-CEM cells at 10 uM assessed as cell growth inhibition relative to control
[2] = Antiproliferative activity against human Hs 578T cells at 10 uM assessed as cell growth inhibition relative to control
PC-3 = test: Antiproliferative activity against human PC3 cells at 10 uM assessed as cell growth inhibition relative to control
NCI-H322M = test: Antiproliferative activity against human NCI-H322M cells at 10 uM assessed as cell growth inhibition relative to control
SW-620 = test: Antiproliferative activity against human SW620 cells at 10 uM assessed as cell growth inhibition relative to control
IGROV-1 = test: Antiproliferative activity against human IGROV1 cells at 10 uM assessed as cell growth inhibition relative to control
NCI-H522 = test: Antiproliferative activity against human NCI-H522 cells at 10 uM assessed as cell growth inhibition relative to control
TK-10 = test: Antiproliferative activity against human TK10 cells at 10 uM assessed as cell growth inhibition relative to control
K562 = test: Antiproliferative activity against human K562 cells at 10 uM assessed as cell growth inhibition relative to control
A549 = test: Antiproliferative activity against human A549 cells at 10 uM assessed as cell growth inhibition relative to control
NCI-H23 = test: Antiproliferative activity against human NCI-H23 cells at 10 uM assessed as cell growth inhibition relative to control
BT-549 = test: Antiproliferative activity against human BT549 cells at 10 uM assessed as cell growth inhibition relative to control
A498 = test: Antiproliferative activity against human A498 cells at 10 uM assessed as cell growth inhibition relative to control

CCOC(=O)C[C@H]1[C@@H](O[Si](C)(C)C(C)(C)C)[C@H](n2cnc3c(N)ncnc32)O[C@@H]1COC(=O)NC
growth, % of control at 10 µM (U-251): 86%
growth, % of control at 10 µM (MCF7): 98%
growth, % of control at 10 µM (SK-MEL-2): 111%
growth, % of control at 10 µM (MOLT-4): 55%
growth, % of control at 10 µM (HCC 2998): 55%
growth, % of control at 10 µM (LOX IMVI): 88%
growth, % of control at 10 µM (OVCAR-4): 78%
growth, % of control at 10 µM (T47D): 84%
growth, % of control at 10 µM (HOP-62): 74%
growth, % of control at 10 µM (UACC-257): 94%
growth, % of control at 10 µM (CAKI-1): 79%
growth, % of control at 10 µM (MDA-MB-468): 77%
growth, % of control at 10 µM (DU-145): 100%
growth, % of control at 10 µM (ACHN): 89%
growth, % of control at 10 µM (SNB-19): 92%
growth, % of control at 10 µM (SF-295): 92%
growth, % of control at 10 µM (Malme-3M): 96%
growth, % of control at 10 µM (HT-29): 100%
growth, % of control at 10 µM (SN12C): 96%
growth, % of control at 10 µM (RXF 393): 78%
growth, % of control at 10 µM (OVCAR-3): 98%
growth, % of control at 10 µM (SK-MEL-5): 68%
growth, % of control at 10 µM (SF-268): 97%
growth, % of control at 10 µM (OVCAR-8): 98%
growth, % of control at 10 µM (HOP-92): 95%
growth, % of control at 10 µM (SNB-75): 83%
growth, % of control at 10 µM (COLO 205): 104%
growth, % of control at 10 µM (HL-60(TB)): 80%
growth, % of control at 10 µM (SK-MEL-28): 106%
growth, % of control at 10 µM (HCT-116): 81%
growth, % of control at 10 µM [1]: 79%
growth, % of control at 10 µM (SF-539): 89%
growth, % of control at 10 µM (UO-31): 95%
growth, % of control at 10 µM (KM12): 102%
growth, % of control at 10 µM (786-0): 87%
growth, % of control at 10 µM (MDA-MB-231): 85%
growth, % of control at 10 µM (OVCAR-5): 115%
growth, % of control at 10 µM (UACC-62): 77%
growth, % of control at 10 µM (M14): 100%
growth, % of control at 10 µM (SK-OV-3): 94%
growth, % of control at 10 µM (NCI-H460): 106%
growth, % of control at 10 µM (EKVX): 83%
growth, % of control at 10 µM (HCT-15): 87%
growth, % of control at 10 µM (NCI-H226): 79%
growth, % of control at 10 µM (CCRF-CEM): 98%
growth, % of control at 10 µM [2]: 93%
growth, % of control at 10 µM (PC-3): 84%
growth, % of control at 10 µM (NCI-H322M): 99%
growth, % of control at 10 µM (SW-620): 104%
growth, % of control at 10 µM (IGROV-1): 118%
growth, % of control at 10 µM (NCI-H522): 75%
growth, % of control at 10 µM (TK-10): 110%
growth, % of control at 10 µM (K562): 86%
growth, % of control at 10 µM (A549): 92%
growth, % of control at 10 µM (NCI-H23): 105%
growth, % of control at 10 µM (BT-549): 74%
growth, % of control at 10 µM (A498): 98%
